Three compounds from patent US9878991B2, “TRPV1 antagonists including dihydroxy substituent and uses thereof” (Purdue Pharma L.P., priority 2007, dated 2018) can be followed below.

Structures are written as SMILES.

The test system of data set [1] is TRPV1 receptor-mediated pain. Description: Capsaicin-induced eye wipe test. It is filed as in vivo. The following applies: rat; for eye wipe value: pre-administration value 24. As to the method: Each experiment uses rats weighing between 200-260 g at the start of the experiment. The rats are group-housed and have free access to food and water at all times, except prior to oral administration of a compound of formula I when food is removed for 16 hours before dosing. A control group acts as a comparison to rats treated with a compound of formula I. The control group is administered the carrier for the compound of formula I. The volume of carrier administered to the control group is the same as the volume of carrier and compound of formula I administered to the test group.
To assess the effect of compounds of formula I on TRPV1 receptor-mediated pain, the capsaicin-induced eye wipe test is used (N. R. Gavva et al., “AMG 9810 [(E)-3-(4-t-Butylphenyl)-N-(2,3-dihydrobenzo[b][1,4]dioxin-6-yl)acrylamide], a Novel Vanilloid Receptor 1 (TRPV1) Antagonist with Antihyperalgesic Properties”, J. Pharmacol. Exp. Ther. 313:474-484 (2005)). The eye wipe test is a reliable high-throughput test of the effect of TRPV1 antagonists. Rats are given a single injection of 1, 3, 10 or 30 mg/kg of either a compound of formula I; 30 mg/kg of a control selected from Celebrex, indomethacin or naproxen; or carrier. At 1, 3 or 5 hours after drug administration, 3 μL of a 100 μM capsaicin solution (in 10% EtOH/PBS) is instilled in one eye of each animal with a pipette. The number of forelimb movements (touching or wiping of the capsaicin-treated eye) are counted during a 2 minute period following instillation of capsaicin into the eye.

Data set [2] in a line: Plasma concentration after administration to an animal. The class given is in vivo.

Consider `O=C(Nc1ccc(C(F)(F)F)cc1)N1CCC(F)(c2ncc([C@H](O)CO)cc2Cl)CC1` [Compound N1, (S)-4-(3-chloro-5-(1,2-dihydroxyethyl)pyridin-2-yl)-4-fluoro-N-(4-(trifluoromethyl)phenyl)piperidine-1-carboxamide], for which the eye wipe value in data set [1] (1 hour after administration) was found to be 3; in data set [1] (3 hours after administration), 1; in data set [1] (5 hours after administration), 2. Moreover, the “decrease of eye wipes relative to pre-administration value” in data set [1] (3 hours after administration) is reported as 96%; in data set [1] (5 hours after administration), 92%.
Take `CC(O)(CO)c1cnc(C2=CCN(C(=O)Nc3ccc(C(F)(F)F)cc3)CC2)c(Cl)c1` (stereo not shown) [Compound R6]: the “maximum plasma concentration relative to the maximum for compound 200” value in data set [2] is reported as 5.3 times.
For `O=C(Nc1ccc(C(F)(F)F)cc1)N1CC=C(c2ncc([C@H](O)CO)cc2Cl)CC1` [Compound Z1, (S)-3-Chloro-5-(1,2-dihydroxy-ethyl)-3′,6′-dihydro-2′H-[2,4′]bipyridinyl-1′-carboxylic acid (4-trifluoromethyl-phenyl)amide], in data set [2], the “maximum plasma concentration relative to the maximum for compound 200” value is on record as 2.5 times.
